One assay addresses T1, human glucagon receptor (Homo sapiens, UniProt P47871).
T1 construct: made in house; host or cells: FreeStyle CHO cells, transient transfection with pMSRαneo/hGCGR; membrane fraction (35,000 rpm pellet)
Description: Glucagon binding inhibitory activity ([125I]-glucagon binding to glucagon receptor membrane protein). The conditions noted are these: human glucagon receptor membrane protein, [125I]-glucagon, 90 min room temperature. How it is done:
The glucagon binding inhibitory action of the compound of the present invention was evaluated by the following method.
(1) Cloning of Human Glucagon Receptor Gene
Human glucagon receptor gene was cloned by PCR reaction using human pancreas Marathon-ready cDNA (Clontech) as a template and the following primer set.
PCR reaction was performed using Advantage 2 polymerase (Clontech) and according to the attached protocol. The obtained PCR product was electrophoresed on an agarose gel (1%). An about 1.4 kb of DNA fragment containing a glucagon receptor gene was recovered from the gel and digested with restriction enzymes EcoRI and NotI. DNA treated with the restriction enzymes was electrophoresed on an agarose gel (1%). An about 1.4 kb of DNA fragment was recovered and ligated to plasmid pMSRαneo digested with restriction enzymes EcoRI and NotI to construct a human-type glucagon receptor expression plasmid DNA “pMSRαneo/hGCGR”.
(2) Preparation of Glucagon Receptor Membrane Protein
A human-type glucagon receptor was expressed using FreeStyle CHO Expression System (Invitrogen). A transient expression in FreeStyle CHO cell was performed using a human-type glucagon receptor expression plasmid DNA “pMSRαneo/hGCGR” and according to the manual attached to the FreeStyle CHO Expression System. The above-mentioned DNA was transfected and the cultured with shaking for 2 days (37° C., 8% CO2, 125 rpm). 2400 ml of culture medium was centrifuged at 2,000 rpm for 10 min and the cells were collected. The collected cells were washed with PBS, suspended in homogenate buffer [10 mM NaHCO3 (pH 7.4), 1 mM EDTA, Complete EDTA-free (Roche, 1 tablet/50 ml)] and disrupted by polytron cell disrupter (Kinematica AG). Disruption solution was centrifuged at 2,000 rpm for 10 min and the supernatant was collected.
(3) Measurement of Glucagon Binding Inhibitory Activity
The plate was stood for 90 min at room temperature. The reaction solution was transferred from the reaction plate to a 96 well unifilter GF/C plate (Perkin Elmer Inc.) using a cell harvester (Perkin Elmer Inc.) and the membrane fraction was collected on the filter by suction. The filter was presoaked in 2 mg/ml of polyethyleneimine to prevent non-specific adsorption of labeled ligand. The filter was washed 4 times with a reaction buffer and dried for 2 hr at 42° C. To each well was added 25 μl of scintillator (MicroScint0; Perkin Elmer Inc.), and the fluorescence amount was measured using a microplate scintillation counter (TopCount NXT™; Perkin Elmer Inc.).
In addition, the inhibitory rate (%) of the well added with the test compound (10 μM; containing 0.4% DMSO) was calculated, using the reaction rate of the well added only with 0.4% DMSO as 0% inhibitory rate, and the reaction rate of the well added with non-labeled glucagon (final concentration 1 μM) as 100% inhibitory rate.
T1 sequence (P47871 26-477): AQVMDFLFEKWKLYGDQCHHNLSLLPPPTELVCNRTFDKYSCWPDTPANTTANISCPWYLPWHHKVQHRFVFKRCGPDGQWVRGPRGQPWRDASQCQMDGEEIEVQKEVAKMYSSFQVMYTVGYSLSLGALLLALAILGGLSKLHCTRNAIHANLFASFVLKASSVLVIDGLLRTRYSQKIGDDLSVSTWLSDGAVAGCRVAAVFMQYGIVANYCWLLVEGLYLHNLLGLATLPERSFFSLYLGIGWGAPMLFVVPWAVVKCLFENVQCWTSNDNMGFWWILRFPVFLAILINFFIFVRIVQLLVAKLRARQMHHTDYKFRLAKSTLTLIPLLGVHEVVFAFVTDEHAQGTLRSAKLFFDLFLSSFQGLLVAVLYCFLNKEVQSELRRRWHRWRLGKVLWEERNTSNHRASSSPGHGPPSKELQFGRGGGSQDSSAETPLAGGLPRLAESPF
In turn, `COCc1c(C(Nc2ccc(C(=O)N(C)CCC(=O)O)cc2)C2CCCCC2)oc2ccc(F)cc12` (single isomer, unassigned) [Example A49, 3-[{[4-({cyclohexyl[5-fluoro-3-(methoxymethyl)-1-benzofuran-2-yl]methyl}amino)phenyl]carbonyl}(methyl)amino]propanoic acid] came in with an IC50 of 0.64 µM. That is a sub-micromolar value.

`CC(C)c1nn(-c2ccc(C(F)(F)F)cn2)cc1C(Nc1ccc(C(=O)N(C)CCC(=O)O)cc1)C1CCCCC1` (stereo not drawn) [Example 8, 3-[({4-[(cyclohexyl{3-(1-methylethyl)-1-[5-(trifluoromethyl)pyridin-2-yl]-1H-pyrazol-4-yl}methyl)amino]phenyl}carbonyl)(methyl)amino]propanoic acid] showed an IC50 of 0.41 µM.

Still in this assay, the particulars now being: test compound 10 μM; 0.4% DMSO = 0%, non-labeled glucagon 1 μM = 100%; read-out: inhibitory rate (%) at 10 μM.
Turning to `COCc1c(C(Nc2ccc(C(=O)N(C)CCC(=O)O)cc2)C2CCCCC2)oc2ccc(F)cc12` (single isomer, unassigned) [Example A49, 3-[{[4-({cyclohexyl[5-fluoro-3-(methoxymethyl)-1-benzofuran-2-yl]methyl}amino)phenyl]carbonyl}(methyl)amino]propanoic acid], the inhibition at 10 µM turned out to be 86%.

With `Cc1nn(-c2ccc(C(F)(F)F)cn2)cc1C(Nc1ccc(C(=O)NCCC(=O)O)cc1)C1CCCCC1` (stereo not drawn) [Example 1, 3-[({4-[(Cyclohexyl{3-methyl-1-[5-(trifluormethyl)pyridin-2-yl]-1H-pyrazol-4-yl}methyl)amino]phenyl}carbonyl)amino]propanoic acid], the inhibition at 10 µM was found to be 73%.

Turning to `Cc1nn(-c2ccc(C(F)(F)F)cn2)cc1C(Nc1ccc(C(=O)N(C)CCC(=O)O)cc1)C1CCCCC1` (stereo not drawn) [Example 2, 3-[({4-[(cyclohexyl{3-methyl-1-[5-(trifluoromethyl)pyridin-2-yl]-1H-pyrazol-4-yl}methyl)amino]phenyl}carbonyl)(methyl)amino]propanoic acid], the inhibition at 10 µM is 72%.

Turning to `CCc1nn(-c2ccc(C(F)(F)F)cn2)cc1C(Nc1ccc(C(=O)NCCC(=O)O)cc1)C1CCCCC1` (stereo not drawn) [Example 3, 3-[({4-[(cyclohexyl{3-ethyl-1-[5-(trifluoromethyl)pyridin-2-yl]-1H-pyrazol-4-yl}methyl)amino]phenyl}carbonyl)amino]propanoic acid], the inhibition at 10 µM was determined as 74%.

`CCc1nn(-c2ccc(C(F)(F)F)cn2)cc1C(Nc1ccc(C(=O)N(C)CCC(=O)O)cc1)C1CCCCC1` (stereo not drawn) [Example 4, 3-[({4-[(cyclohexyl{3-ethyl-1-[5-(trifluoromethyl)pyridin-2-yl]-1H-pyrazol-4-yl}methyl)amino]phenyl}carbonyl)(methyl)amino]propanoic acid]: the inhibition at 10 µM stood at 77%.

As to `CCCc1nn(-c2ccc(C(F)(F)F)cn2)cc1C(Nc1ccc(C(=O)NCCC(=O)O)cc1)C1CCCCC1` (stereo not drawn) [Example 5, 3-[({4-[(cyclohexyl{3-propyl-1-[5-(trifluoromethyl)pyridin-2-yl]-1H-pyrazol-4-yl}methyl)amino]phenyl}carbonyl)amino]propanoic acid], the inhibition at 10 µM came out at 73%.

With `CCCc1nn(-c2ccc(C(F)(F)F)cn2)cc1C(Nc1ccc(C(=O)N(C)CCC(=O)O)cc1)C1CCCCC1` (stereo not drawn) [Example 6, 3-[({4-[(cyclohexyl{3-propyl-1-[5-(trifluoromethyl)pyridin-2-yl]-1H-pyrazol-4-yl}methyl)amino]phenyl}carbonyl)(methyl)amino]propanoic acid], the inhibition at 10 µM turned out to be 75%.

Consider `CC(C)c1nn(-c2ccc(C(F)(F)F)cn2)cc1C(Nc1ccc(C(=O)NCCC(=O)O)cc1)C1CCCCC1` (stereo not drawn) [Example 7, 3-[({4-[(cyclohexyl{3-(1-methylethyl)-1-[5-(trifluoromethyl)pyridin-2-yl]-1H-pyrazol-4-yl}methyl)amino]phenyl}carbonyl)amino]propanoic acid], for which the inhibition at 10 µM is 72%.

Turning to `CC(C)c1nn(-c2ccc(C(F)(F)F)cn2)cc1C(Nc1ccc(C(=O)N(C)CCC(=O)O)cc1)C1CCCCC1` (stereo not drawn) [Example 8, 3-[({4-[(cyclohexyl{3-(1-methylethyl)-1-[5-(trifluoromethyl)pyridin-2-yl]-1H-pyrazol-4-yl}methyl)amino]phenyl}carbonyl)(methyl)amino]propanoic acid], the inhibition at 10 µM was 75%.

Take `O=C(O)CCNC(=O)c1ccc(NC(c2cn(-c3ccc(C(F)(F)F)cn3)nc2C2CC2)C2CCCCC2)cc1` (stereo not drawn) [Example 9, 3-[({4-[(cyclohexyl{3-cyclopropyl-1-[5-(trifluoromethyl)pyridin-2-yl]-1H-pyrazol-4-yl}methyl)amino]phenyl}carbonyl)amino]propanoic acid]: the inhibition at 10 µM was 74%.

`CN(CCC(=O)O)C(=O)c1ccc(NC(c2cn(-c3ccc(C(F)(F)F)cn3)nc2C2CC2)C2CCCCC2)cc1` (stereo not drawn) [Example 10, 3-[({4-[(cyclohexyl{3-cyclopropyl-1-[5-(trifluoromethyl)pyridin-2-yl]-1H-pyrazol-4-yl}methyl)amino]phenyl}carbonyl)(methyl)amino]propanoic acid]: the inhibition at 10 µM stood at 76%.

On to `O=C(O)CCNC(=O)c1ccc(NC(c2cn(-c3ccc(C(F)(F)F)cn3)nc2CCc2ccccc2)C2CCCCC2)cc1` (stereo not drawn) [Example 11, 3-[({4-[(cyclohexyl{3-(2-phenylethyl)-1-[5-(trifluoromethyl)pyridin-2-yl]-1H-pyrazol-4-yl}methyl)amino]phenyl}carbonyl)amino]propanoic acid], for which the inhibition at 10 µM turned out to be 73%.

Regarding `CN(CCC(=O)O)C(=O)c1ccc(NC(c2cn(-c3ccc(C(F)(F)F)cn3)nc2CCc2ccccc2)C2CCCCC2)cc1` (stereo not drawn) [Example 12, 3-[({4-[(cyclohexyl{3-(2-phenylethyl)-1-[5-(trifluoromethyl)pyridin-2-yl]-1H-pyrazol-4-yl}methyl)amino]phenyl}carbonyl)(methyl)amino]propanoic acid], the inhibition at 10 µM came out at 74%.

Turning to `CC(C)(C)c1nn(-c2ccc(C(F)(F)F)cn2)cc1C(Nc1ccc(C(=O)NCCC(=O)O)cc1)C1CCCCC1` (stereo not drawn) [Example 13, 3-{[(4-{[{3-tert-butyl-1-[5-(trifluoromethyl)pyridin-2-yl]-1H-pyrazol-4-yl}(cyclohexyl)methyl]amino}phenyl)carbonyl]amino}propanoic acid], the inhibition at 10 µM turned out to be 71%.

For the compound `CN(CCC(=O)O)C(=O)c1ccc(NC(c2cn(-c3ccc(C(F)(F)F)cn3)nc2C(C)(C)C)C2CCCCC2)cc1` (stereo not drawn) [Example 14, 3-{[(4-{[{3-tert-butyl-1-[5-(trifluoromethyl)pyridin-2-yl]-1H-pyrazol-4-yl}(cyclohexyl)methyl]amino}phenyl)carbonyl](methyl)amino}-propanoic acid], the inhibition at 10 µM is 71%.

In the case of `O=C(O)CCNC(=O)c1ccc(NC(c2cn(-c3ccccc3)nc2CCc2ccccc2)C2CCCCC2)cc1` (stereo not drawn) [Example 15, 3-({[4-({cyclohexyl[1-phenyl-3-(2-phenylethyl)-1H-pyrazol-4-yl]methyl}amino)phenyl]carbonyl}amino)propanoic acid], the inhibition at 10 µM came to 72%.

Regarding `CN(CCC(=O)O)C(=O)c1ccc(NC(c2cn(-c3ccccc3)nc2CCc2ccccc2)C2CCCCC2)cc1` (stereo not drawn) [Example 16, 3-[{[4-({cyclohexyl[1-phenyl-3-(2-phenylethyl)-1H-pyrazol-4-yl]methyl}amino)phenyl]carbonyl}(methyl)amino]propanoic acid], the inhibition at 10 µM amounted to 63%.

Turning to `Cc1nn(-c2ccccc2)cc1C(Nc1ccc(C(=O)NCCC(=O)O)cc1)C1CCCCC1` (stereo not drawn) [Example 17, 3-{[(4-{[cyclohexyl(3-methyl-1-phenyl-1H-pyrazol-4-yl)methyl]amino}phenyl)carbonyl]amino}propanoic acid], the inhibition at 10 µM worked out at 80%.

Regarding `Cc1nn(-c2ccccc2)cc1C(Nc1ccc(C(=O)N(C)CCC(=O)O)cc1)C1CCCCC1` (stereo not drawn) [Example 18, 3-{[(4-{[cyclohexyl(3-methyl-1-phenyl-1H-pyrazol-4-yl)methyl]amino}phenyl)carbonyl](methyl)amino}propanoic acid], the inhibition at 10 µM was determined as 72%.

For `Cc1nn(-c2ccc(Cl)cc2)cc1C(Nc1ccc(C(=O)NCCC(=O)O)cc1)C1CCCCC1` (stereo not drawn) [Example 19, 3-({[4-({[1-(4-chlorophenyl)-3-methyl-1H-pyrazol-4-yl](cyclohexyl)methyl}amino)phenyl]carbonyl}amino)propanoic acid], the inhibition at 10 µM came to 80%.

Turning to `Cc1nn(-c2ccc(Cl)cc2)cc1C(Nc1ccc(C(=O)N(C)CCC(=O)O)cc1)C1CCCCC1` (stereo not drawn) [Example 20, 3-[{[4-({[1-(4-chlorophenyl)-3-methyl-1H-pyrazol-4-yl](cyclohexyl)methyl}amino)phenyl]carbonyl}(methyl)amino]-propanoic acid], the inhibition at 10 µM turned out to be 79%.

As to `Cc1cc(F)ccc1-n1cc(C(Nc2ccc(C(=O)NCCC(=O)O)cc2)C2CCCCC2)c(C)n1` (stereo not drawn) [Example 21, 3-({[4-({[1-(4-fluoro-2-methylphenyl)-3-methyl-1H-pyrazol-4-yl](cyclohexyl)methyl}amino)phenyl]carbonyl}amino)propanoic acid], the inhibition at 10 µM was 77%.

As a reminder, the IC50 is the concentration needed to halve the response being measured.
